# From the supplement of paper PMC10307832
# Assays:
# Experiment in all cases: relative viability (nuclei count vs DMSO), 5 days (fraction); higher = more cells survive
# [1] = compound: C1=CC2=C(C=C(C(=C2N=C1)O)N=NC3=CC4=C(C=C3)C=C(C=C4)S(=O)(=O)O)S(=O)(=O)O + COc1cccc2cc(-c3nc([C@H]4CC[C@H](C(=O)O)CC4)n4ncnc(N)c34)[nH]c12 [OSI-027] (partner 0.5 µM)
# Summary of the method: (§1)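 Relative viability divides the nuclei count in treated wells by that in vehicle wells. Lung cancer cell lines were seeded in 1536-well plates, dosed by pin tool the next day, and fixed and stained after 5 days in one step with final 0.05% Triton X-100, 1% formaldehyde and 1 ug/ml Hoechst. Dosing was a single drug or a fixed anchor-drug dose plus five library-drug doses (not always all listed) in √10 steps, and values are medians of duplicate plates imaged at 4×.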
# AT-7519 + OSI-027 = compound: O=C(NC1CCNCC1)c1n[nH]cc1NC(=O)c1c(Cl)cccc1Cl [AT-7519] + COc1cccc2cc(-c3nc([C@H]4CC[C@H](C(=O)O)CC4)n4ncnc(N)c34)[nH]c12 [OSI-027] (partner 0.5 µM)
# Summary of the method: as §1
# [2] = compound: C1=CC2=C(C=C(C(=C2N=C1)O)N=NC3=CC4=C(C=C3)C=C(C=C4)S(=O)(=O)O)S(=O)(=O)O + Nc1ncn([C@H]2C[C@H](O)[C@@H](CO)O2)c(=O)n1 [Decitabine] (partner 2 µM)
# Summary of the method: as §1
# [3] = compound: C1=CC2=C(C=C(C(=C2N=C1)O)N=NC3=CC4=C(C=C3)C=C(C=C4)S(=O)(=O)O)S(=O)(=O)O + C[C@@H](Oc1cc(-c2cnn(C3CCNCC3)c2)cnc1N)c1c(Cl)ccc(F)c1Cl [Crizotinib] (partner 1 µM)
# Summary of the method: as §1
Cell Line,relative viability ([1]; first compound 0.08 µM),relative viability ([1]; first compound 0.253 µM),relative viability ([1]; first compound 0.8 µM),relative viability ([1]; first compound 2.53 µM),relative viability ([1]; first compound 8 µM),relative viability (AT-7519 + OSI-027; first compound 0.01 µM),relative viability (AT-7519 + OSI-027; first compound 0.03162 µM),relative viability (AT-7519 + OSI-027; first compound 0.3162 µM),relative viability (AT-7519 + OSI-027; first compound 1 µM),relative viability ([2]; first compound 0.08 µM),relative viability ([2]; first compound 0.253 µM),relative viability ([2]; first compound 0.8 µM),relative viability ([2]; first compound 2.53 µM),relative viability ([2]; first compound 8 µM),relative viability ([3]; first compound 0.08 µM),relative viability ([3]; first compound 0.253 µM),relative viability ([3]; first compound 0.8 µM),relative viability ([3]; first compound 2.53 µM),relative viability ([3]; first compound 8 µM)
SK-MES-1,0.69,0.633,0.588,0.681,0.661,0.615,0.58,0.564,0.332,0.39,0.362,0.336,0.405,0.367,0.96,0.886,0.963,1,0.948
NCI-H1437,0.93,0.899,0.889,0.961,0.813,0.755,0.938,0.824,0.645,0.603,0.567,0.655,0.586,0.566,1.07,0.894,0.897,0.909,0.919
LU99A,0.311,0.301,0.35,0.292,0.296,0.315,0.248,0.223,0.299,0.91,0.818,0.767,0.838,0.705,0.626,0.605,0.521,0.57,0.574
HCC-827,0.804,0.764,0.754,0.798,0.843,0.842,0.72,0.705,0.539,0.402,0.311,0.297,0.342,0.306,0.97,0.886,0.971,0.911,0.998
LK-2,0.21,0.202,0.189,0.211,0.202,0.182,0.217,0.19,0.189,0.417,0.254,0.201,0.384,0.296,0.275,0.223,0.244,0.218,0.162
HCC-366,0.989,0.932,0.89,0.861,0.948,0.769,0.808,0.89,0.718,0.299,0.307,0.347,0.357,0.358,0.759,0.445,0.404,0.618,0.46
BEN,0.289,0.303,0.244,0.297,0.292,0.541,0.278,0.55,0.412,0.735,0.745,0.635,0.804,0.688,1.14,0.872,0.792,0.925,0.813
NCI-H23,0.619,0.585,0.637,0.654,0.603,0.475,0.521,0.664,0.396,0.331,0.304,0.335,0.311,0.302,0.539,0.614,0.463,0.533,0.51
201T,0.804,0.687,0.684,0.761,0.735,0.694,0.739,1.01,0.812,0.887,0.848,0.873,0.87,0.845,1.1,1.07,1.02,1.09,0.995
NCI-H2170,0.958,0.676,0.666,0.756,0.689,0.782,0.685,0.687,0.719,0.494,0.454,0.464,0.429,0.459,1.38,1.1,1.15,1.23,1.2
NCI-H460,0.777,0.71,0.654,0.647,0.576,0.906,0.686,0.288,0.0567,0.506,0.487,0.501,0.497,0.387,1.16,0.98,0.85,1.09,0.836
NCI-H661,0.789,0.736,0.703,0.683,0.687,0.671,0.694,0.564,0.333,0.566,0.446,0.58,0.551,0.573,1.03,0.905,–,1.01,0.971
HCC-15,0.75,0.675,0.627,0.63,0.65,0.673,0.632,0.54,0.34,0.723,0.689,0.637,0.625,0.596,0.957,0.851,0.806,0.824,0.77
ABC-1,0.435,0.336,0.463,0.499,0.64,0.523,0.455,0.326,0.151,1.14,1.16,0.936,1.39,1.09,1.07,1.33,1.01,1.27,1.23
LCLC-103H,0.475,0.485,0.444,0.463,0.517,0.455,0.479,0.46,0.456,0.811,0.774,0.655,0.744,0.732,1.16,1.02,0.978,1.07,1.06
NCI-H441,0.504,0.638,0.461,0.66,0.588,0.679,0.603,0.582,0.408,0.245,0.246,0.238,0.252,0.248,0.762,0.672,0.631,0.714,0.601
EPLC-272H,0.298,0.258,0.258,0.283,0.294,0.283,0.296,0.264,0.206,0.415,0.372,0.37,0.438,0.375,1.14,0.883,0.977,0.978,0.964
